Test results: patent publication US9193989B2, “PRPK-TPRKB modulators and uses thereof” (TAIHO PHARMACEUTICAL CO., LTD., priority 2010, dated 2015)

Legend:
PRPK/TPRKB = target: T1, PRPK/TPRKB (Homo sapiens, UniProt Q96S44+Q9Y3C4); assay: Competition for PRPK/TPRKB binding to the pomalidomide-based affinity reagent (affigel pulldown); conditions: FIG. 4; excess free competitor
T1 construct: host or cells: HEK-293FT
Protocol: Cell lysates were prepared from 2×10^8 Jeko-1, Jurkat, or HS-Sultan cells or 5×10^7 HeLa S3 cells per pulldown sample by lysis in 2 mL Buffer B (50 mM HEPES pH 7.5, 5% glycerol, 1.5 mM MgCl2, 150 mM NaCl, 1 mM Na3VO4, 25 mM NaF, 0.4% Nonidet P-40, 1 mM DTT, and 1 Complete Mini EDTA-free protease inhibitor tablet per 10-25 mL Buffer B). Lysates were incubated on ice for 30 mM, followed by 2× freeze-thaw using liquid N2 and 37° C. water bath in polypropylene tubes. Samples were centrifuged at 1800 rpm for 5 mM at 4° C. Supernatants were ultracentrifuged at 55,000 rpm for 1 hr at 4° C. Supernatants were collected and pre-cleared with 10 μL control affigel reagent (affigel-ethanolamine or affigel-PEG linker) by incubation on a rotator for 30 mM at 4° C. Pre-cleared lysates were transferred to Mobicol 1 mL columns with 90 μm pore size frit on ice and centrifuged at 0.1 rcf for 10 sec to separate affigel beads from lysates. Incubations with pre-cleared lysates and excess pomalidomide were performed at a 20-fold excess competitor concentration (500 μM final concentration) on a rotator for 30 mM at 4° C. Subsequently, 10 μL control or pomalidomide-based affigel reagents were added to each sample and pulldowns were performed for 1 hr at 4° C. Lysates and affigel reagents were transferred to Mobicol 1 mL columns with 90 μm pore size frit and affigel beads were washed 3× with 800 μL Buffer B and 2× with 800 μL Buffer A (Buffer B not including 0.4% Nonidet P-40). Columns were centrifuged for 30 sec at 0.1 rcf to remove any remaining wash buffer and then closed with lower plug. Columns were placed in 1.5 mL Low-binding Eppendorf tubes and heated at 50° C. for 30 mM in 40 uL 2×SDS sample buffer with 10 mM DTT to elute bound proteins from affigel reagents. Columns were then opened and eluents were collected in the low-binding Eppendorf tubes by 15 sec centrifugation at 1600 rpm. Samples were applied and resolved on 4-12% SDS-PAGE gels followed by silver staining (SilverQuest Kit, Invitrogen, Carlsbad, Calif.). Bands which were competed by excess actimid competitor but not by DMSO were excised and identified by LC/MS/MS analysis at the Beth Israel Deaconess Medical Center Mass Spectrometry Core Facility (Boston, Mass.).
C-term Myc-DDK tagged PRPK and C-term Myc-DDK tagged TPRKB proteins were transiently overexpressed from cDNAs (obtained from Origene, Rockville, Md.) in HEK-293FT cells using FuGENE-6 transfection reagent according to the manufacturer's protocol (Roche, Indianapolis, Ind.). One day prior to transfection, 2.5×10^6 HEK-293FT cells were plated per p100 dish. Cells were lysed 48 hr post-transfection in 1-2 mL Buffer B per p100 dish per sample. […] The amount of PRPK and TPRKB captured by each affinity reagent was determined by silver stain and anti-DDK (anti-DDK monoclonal antibody, Origene) Western blot. Competition experiments were also performed using a variety of compounds and derivatives (pomalidomide, lenalidomide, thalidomide, CMPD 31, CMPD 30, CMPD 29).

[1] = tested on: IL-2 production by Jurkat and PBMCs; assay: IL-2 production assay, inhibition with CMPD 31; assay type: cell-based, human; conditions: FIG. 8; CMPD 31 at final concentration of 10 μM
Excerpt: This protocol describes the technique to detect the amount of IL-2 produced by Jurkat and PBMCs in 96-well format. This assay was used to calculate IL-2 production EC50 values of lenalidomide, pomalidomide, all derivatives and inhibition with CMPD 31.
Logarithmically growing Jurkat cells from ATCC (clone E6-1) or frozen and thawed human PBMCs from Astarte (Peripheral Blood Mononuclear Cells, normal Donor 41) were resuspended at 1×10^6 cells/mL in RPMI-1640 medium containing 10% FBS and 1% antibiotic/antimycotic solution. Cells were plated into each well of a 96-well anti-CD3 plate (Becton Dickinson catalogue number #354725) at 1×10^5 cells/100 μl per well. […]
Compound daughter plates were resuspended in 200 μL of RPMI-1640 medium as a 10× stock and then 20 μL of the 10× stock was added to each anti-CD3 antibody assay plate well with a final volume of 200 μl by the addition of 80 μl of complete media. […] The amount of IL-2 produced was determined by an ELISA assay and was performed in one of two ways as per manufacturer instructions; by a standard ELISA (Enzyme-Linked Immunosorbent Assay) protocol method (Becton Dickinson) or an AlphaLISA protocol (Perkin Elmer). […]

B cell growth = assay: Growth inhibition assay, inhibition with CMPD 31; assay type: cell-based; conditions: FIG. 8; CMPD 31 at final concentration of 10 μM
Protocol: This protocol describes the technique to perform growth inhibition assays in 96-well format. This assay was used to calculate growth inhibition IC50 values of lenalidomide, pomalidomide, all derivatives and inhibition with CMPD31.
Cell lines Jurkat, NCI-H929, and JeKo-1 were obtained from ATCC and were maintained by vendor-specified media requirements. Cells were plated in 96-well plates at 3,750 cells per well (Jeko-1, HS-Sultan) or 5,000 cell per well (NCI-H929) in 90 μL of assay growth medium (RPMI-1640, 10% FBS, 1% pen-strep). Cells in plates were allowed to incubate at room temperature for one hour and then transferred to an incubator set at 37° C. and 5% CO2 humidified air overnight.
Compounds were serially diluted 3-fold in 100% DMSO into duplicate 10-point dose curves using a Biomek FX liquid handler in columns 2 through 11 of a 96-well U-bottom plate. Starting concentrations of compounds was 10 mM. Daughter plates containing 2 μL of the compound dose curves were stamped and stored at −80 C. […]
Compound and control daughter plates were diluted 100-fold in 200 μl of assay growth medium and then finally diluted 10-fold more into the 96-well cell plates; a final dilution of 1000-fold in 0.1% DMSO for all wells. […] Plates were incubated for 2 hours at 37° C. in 5% CO2 and then plates were read on a Perkin Elmer Victor^3 V plate reader with excitation at 560 nm and emission at 590 nm. […]

[2] = tested on: natural killer cells in PBMCs; assay: Natural killer cell assay (DELFIA NK lytic activity); assay type: cell-based, human; conditions: FIG. 9; anti-CD3 stimulated PBMCs, 72 hours
Protocol: On the day of initial treatment, cryopreserved peripheral blood mononuclear cells from a healthy donor (PBMCs; Astarte Biologics) were thawed in RPMI-1640 containing 10% fetal bovine serum, 1% penicillin-streptomycin and 25 mM HEPES buffer (complete medium) at 37° C. PBMCs were centrifuged two times at 1000 rpm to remove residual DMSO and debris and counted on a haemocytometer. Cells were used at a final cell density of 1×10^6 cells per mL in complete medium. […]
Following the 72 hour treatment, NK cells were assayed for lytic activity using the DELFIA cell cytoxicity assay from Perkin-Elmer according to manufacturer's instructions. […] K562 cells were resuspended in DMEM containing 10% fetal bovine serum and 1% penicillin-streptomycin, counted on a hemacytometer and diluted to 1×10^6 cells per mL. […] Europium solution (200 μL) was added to the supernatants and the plate was placed on a Wallac Victor microplate reader. Following a 15 minute orbital shake at high speed, the plate was read using time-resolved fluorescence (Excitation at 340 nm, Emission at 615 nm; delay 400 μsec; counting window 400 μsec, cycle 1000 μsec). […]

T1 sequence (Q96S44 whole entry, other chains not shown): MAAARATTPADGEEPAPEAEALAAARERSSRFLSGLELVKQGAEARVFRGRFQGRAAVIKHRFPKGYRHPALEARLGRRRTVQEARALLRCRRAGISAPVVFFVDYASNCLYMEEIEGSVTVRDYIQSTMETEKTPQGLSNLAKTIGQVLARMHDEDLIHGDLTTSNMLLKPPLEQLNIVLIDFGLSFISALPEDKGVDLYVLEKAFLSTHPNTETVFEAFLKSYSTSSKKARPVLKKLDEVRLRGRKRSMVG

Compound | compete for PRPK/TPRKB target binding to the pomalidomide-based affinity reagent (PRPK/TPRKB) | suppression of the activity of lenalidomide and pomalidomide in induction of IL-2 production [1] | suppression of the activity of lenalidomide and pomalidomide in inhibition of B cell growth (B cell growth) | natural killer cell activation in PBMCs [2]
CN1C(=O)CCC(N2C(=O)c3cccc(N)c3C2=O)C1=O (stereo not shown) [CMPD 29, 4-Amino-2-(1-methyl-2,6-dioxopiperidin-3-yl)isoindoline-1,3-dione] | compete | – | – | –
Nc1cccc2c1C(=O)N([C@H]1CCC(=O)NC1)C2=O [CMPD 30, (S)-4-Amino-2-(6-oxopiperidin-3-yl)isoindoline-1,3-dione] | does not | – | – | –
Nc1ccc2c(c1)C(=O)N(C1CCC(=O)NC1=O)C2=O (stereo not shown) [CMPD 31] | compete | suppresses | suppresses | –
Nc1cccc2c1CN(C1CCC(=O)NC1=O)C2=O (stereo not shown) [lenalidomide] | compete | – | – | activation
Nc1cccc2c1C(=O)N(C1CCC(=O)NC1=O)C2=O (stereo not shown) [pomalidomide] | compete | – | – | activation
O=C1CCC(N2C(=O)c3ccccc3C2=O)C(=O)N1 (stereo not shown) [thalidomide] | compete | – | – | –
